Where “and” joins values, the source holds several entries; their conditions need not be identical. Identical values can stand only once. Entries after “also recorded” stand apart in the source; their conditions may differ.

The record followed here is patent US8871735B2, “Methods and compositions for providing cardiac protection” (University of Medicine and Dentistry of New Jersey, priority 2008, dated 2014).

One assay relates to H9C2 cells. Kind of assay: cAMP accumulation in H9C2 cells. The assay is classed as cell-based. The settings on record: 5 μM ISO, 3 minutes, 10 μM drug. The source says:
[…] Fludarabine ((+)-2-Fluoro-9-(5-O-phosphono-β-D-arabinofuranosyl)-9H-purin-6-amine) and Cladribine (2-chloro-2′-deoxyadenosine) are anti-cancer drugs, Adefovir (Bis(2,2-dimethylpropanoyloxymethyl)[2-(6-amino-9H-purin-9-yl)ethoxymethyl]phosphonate) and Zidovudine are anti-HIV drugs. Zidovudine-TP is a metabolite of zidovudine which inhibits virus replication. TP; triphosphate. 3-Deazaadenosine, Formycin A (7-Amino-3-(β-D-ribofuranosyl)-1H-pyrazolo[4,3-d]pyrimidine), 2-Far (2-Fluoroadenosine), formycin A ((2S,3R,4S,5R)-2-(7-amino-2H-pyrazolo[5,4-e]pyramidin-3-yl-5-(hydroxymeth-yl)oxolane-3,4-diol), 2-FD (2-Fluoro-2′-deoxyadenosine) and 2′5′ ddAdo (2′5′-dideoxyadenosine) are experimental drugs.
Mice were anesthetized with 2.5% tribromoethanol (0.010 to 0.015 mL per gram of body weight) injected intraperitoneally, and echocardiography was performed with ultrasonography (ACUSON Sequoia C256, Siemens Medical Solutions, Malvern, Pa.). For acute injection of isoproterenol, forskolin and milrinon, a PE-10 catheter was inserted into the right jugular vein, and drugs were injected at the rate of 1 μl/s. cAMP accumulation assay in H9C2 cells, a cardiac myoblast cell line, was examined as previously described.

The target in the next assay is type 5 AC (Homo sapiens, UniProt O95622). Kind of assay: Double-reciprocal plots of type 5 AC catalytic activity against ATP.
For a further assay, the system named is WT and AC5KO mice. The assay is described as follows: Heart rate and arterial pressure in conscious WT and AC5KO mice. In kind it is in vivo, mouse. To be noted: for decrease in HR in conscious AC5KO / decrease in HR in conscious WT: 0.01 μg/g (0.01 mg/kg) i.v. From the text:
In AC5KO and WT mice, four ECG wires (New England Electric Wire Corporation, Lisbon, N.H., USA) were placed subcutaneously, a silicone elastomer tubing (Cardiovascular Instrument Corp., Wakefield, Mass., USA) was inserted into the right external jugular vein and a 1.4 F micromanometer catheter (Millar Instruments, Inc., Houston, Tex., USA) was inserted into the lower abdominal aorta via the femoral artery as described previously with some modifications. The ECG wires, the silicone elastomer tubing and the micromanometer catheter were tunneled subcutaneously to the back, externalized, and secured in a plastic cap. On the day of the study, each mouse was placed in the mouse holder, the jugular venous catheter was accessed and connected to a microliter syringe (Hamilton Co., Reno, Nev., USA), the 1.4 F micromanometer catheter was connected to a recorder (Dash 4u; Astro-Med, Inc., West Warwick, R.I., USA) and the ECG wires were connected to an ECG amplifier (Gould Inc., Cleveland, Ohio, USA). All experiments were recorded with animals in the conscious state. After at least 6 hours recovery from the implantation of the catheter, when a stable heart rate (HR) was achieved, the baseline ECG and arterial pressure (AP) were recorded for 5 min. Ach (0.05 μg/g) was then administered intravenously (i.v.), and the ECG and AP recording were repeated. A recovery period of 15 min was allowed for the HR and AP to return to baseline before administering the next drug. Baseline HR slowing was examined in response to phenylephrine (0.2 μg i.v.).
Electrocardiogram (ECG) wires, a jugular vein catheter for drug infusion, and a femoral artery catheter for arterial pressure monitoring were implanted under anesthesia. Measurements of left ventricular ejection fraction (LVEF) were taken using echocardiography under anesthesia with 2.5% tribromomethanol (0.010-0.015 ml/g body wt) injected intraperitoneally (i.p.). Intravenous (i.v.) infusion of ISO (0.04 μg/kg/min i.v. for 5 min) was performed using an infusion pump. To examine the responses to a muscarinic agonist, acetylcholine (ACh) (25 mg/kg i.p.) was co-administered i.p. during the i.v. infusion of ISO (0.04 μg/kg/min). In addition, in conscious mice ACh (0.01 and 0.05 mg/kg), atropine (0.25, 1 and 2 mg/kg), or verapamil (0.75 mg/kg) were administered i.v., and the ECG was recorded. A recovery period of 15 min was allowed for the HR to return to baseline before administering the next drug. To examine HR responses to baroreflex hypertension, phenylephrine (0.2 mg/kg i.v.) was infused, and the ECG and arterial pressure were measured.

A further assay relates to AC. The assay is described as follows: AC activity in heart membranes from WT and AC5KO mice. In kind it is biochemical, mouse. The procedure:
Protein concentration was measured by the method of Bradford using bovine serum albumin as a standard. AC activity was measured as described previously. AC activity was linear within the incubation time up to 30 min. In order to harvest hearts for tissue cAMP content measurements, mice were allowed to acclimate to the surroundings in the laboratory for an hour before sacrifice. Freshly isolated hearts were briefly immersed in liquid nitrogen. The tissue was homogenized in ice-cold 6% percholic acid, and cAMP was extracted as described before. The concentration of cAMP was determined with an RIA kit (PerkinElmer Life Sciences, Boston, Mass., USA).
cAMP production in membranes from the hearts of AC5KO and WT at 6 months of age was examined. The steady state AC activity was determined as the maximal capacity of cAMP production in the presence of ISO (100 μM ISO+100 μM GTP), GTPγS (100 μM) or forskolin (100 μM). […] Basal cardiac function was not decreased, but the response to ISO and muscarinic inhibition of ISO were attenuated.
Protein concentration was measured by the Bradford method using bovine serum albumin as a standard. AC activity was measured as described previously. AC activity was linear within the incubation time up to 30 min. For the study of Ca^2+ inhibition, the membranes were treated first with EGTA to extract the endogenous Ca^2+ prior to the assay. Free Ca^2+ concentrations were obtained with the use of 200 μmol/L EGTA buffers as described previously. The experiments with Ca^2+ inhibition were conducted in the presence of 100 μmol/L isoproterenol (ISO) plus 100 μmol/L GTP.
cAMP production in membranes from the hearts of AC5KO and WT mice at the age of 6 months were examined. The steady state AC activity in the membrane preparation was determined as the maximal capacity of cAMP production in the presence of ISO ([…], ISO+100 μmol/L GTP), guanosine-5′-O-(3-triophosphate) GTP[…]S (100 μmol/L), or forskolin (100 μmol/L). AC activity was decreased in AC5KO relative to that of WT by 35+/−4% (basal), 27+/−5% (ISO), 27+/−2% (GTPγS), and 40+/−5% (forskolin).

Sequence of type 5 AC (O95622 whole entry): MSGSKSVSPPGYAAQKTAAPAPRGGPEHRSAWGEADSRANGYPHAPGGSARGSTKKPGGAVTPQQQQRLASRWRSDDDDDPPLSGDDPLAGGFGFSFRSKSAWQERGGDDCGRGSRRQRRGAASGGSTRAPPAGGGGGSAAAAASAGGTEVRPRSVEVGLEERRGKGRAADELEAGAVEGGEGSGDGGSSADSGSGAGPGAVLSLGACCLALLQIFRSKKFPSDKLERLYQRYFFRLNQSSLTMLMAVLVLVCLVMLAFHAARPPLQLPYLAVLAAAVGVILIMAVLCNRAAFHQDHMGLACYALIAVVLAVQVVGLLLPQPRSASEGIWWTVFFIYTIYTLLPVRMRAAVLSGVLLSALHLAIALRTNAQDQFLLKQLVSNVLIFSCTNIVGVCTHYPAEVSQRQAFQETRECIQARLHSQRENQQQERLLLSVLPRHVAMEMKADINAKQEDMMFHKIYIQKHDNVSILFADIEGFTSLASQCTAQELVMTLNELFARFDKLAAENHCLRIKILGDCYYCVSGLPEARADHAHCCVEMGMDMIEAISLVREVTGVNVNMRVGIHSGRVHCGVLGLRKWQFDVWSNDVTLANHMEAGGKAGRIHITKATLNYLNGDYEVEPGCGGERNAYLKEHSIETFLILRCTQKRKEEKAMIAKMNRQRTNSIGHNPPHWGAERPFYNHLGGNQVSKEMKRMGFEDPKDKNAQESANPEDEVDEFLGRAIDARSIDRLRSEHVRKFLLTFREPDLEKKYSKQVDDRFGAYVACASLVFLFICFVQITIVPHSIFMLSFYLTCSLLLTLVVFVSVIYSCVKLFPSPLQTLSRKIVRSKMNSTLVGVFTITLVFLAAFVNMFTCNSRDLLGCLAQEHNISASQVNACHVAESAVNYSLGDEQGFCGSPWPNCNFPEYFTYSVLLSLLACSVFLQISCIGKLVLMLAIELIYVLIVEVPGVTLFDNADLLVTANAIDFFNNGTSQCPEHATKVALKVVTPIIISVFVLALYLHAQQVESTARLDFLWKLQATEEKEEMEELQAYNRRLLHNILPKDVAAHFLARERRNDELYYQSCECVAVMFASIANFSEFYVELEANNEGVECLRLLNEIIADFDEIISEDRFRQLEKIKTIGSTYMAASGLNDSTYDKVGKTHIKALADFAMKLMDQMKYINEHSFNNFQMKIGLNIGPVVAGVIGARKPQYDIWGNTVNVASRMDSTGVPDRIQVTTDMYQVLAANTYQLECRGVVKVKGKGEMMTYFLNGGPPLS
Procedure for type 5 AC: Hearts and striatum were dissected from the mice and membrane preparations were made as previously described. This crude membrane preparation was used in the AC assay. AC activity was measured by a modification of the method of Salomon et al. as previously described. […] Double-reciprocal plots were examined as previously described.

For the compound `CC(Cn1cnc2c(N)ncnc21)OCP(=O)(O)OP(=O)(O)OP(=O)(O)O` (stereo in doubt) [PMPA-PP, Tenofovir diphosphate], the “inhibition of cAMP accumulation in H9C2 cells” value (from here on “inhibition of cAMP accumulation”) in the assay on H9C2 cells was “little inhibition”.
With `Nc1nc(F)nc2c1ncn2[C@@H]1O[C@H](CO)[C@@H](O)[C@H]1O` [2-fluoroadenosine, 2-Fluoroadenosine], the “inhibition of cAMP accumulation” value with H9C2 cells is “moderately inhibited”. In addition, the “mode of inhibition with respect to ATP” value at type 5 AC is “non-competitive”.
Consider `CC(=O)OCC[N+](C)(C)C` [ACh, acetylcholine], for which the “decrease in HR in conscious AC5KO” value stood at 1.3% in the assay with WT and AC5KO mice (AC5KO); 7.5% in the assay on WT and AC5KO mice (AC5KO, listed as Ach). For the same compound, the “decrease in HR in conscious WT” value in the assay with WT and AC5KO mice (WT) is reported as 15%; in the assay with WT and AC5KO mice (WT, listed as Ach), 22%.
In the case of `C[N+](C)(C)CCOC(N)=O` [Carbachol], the “inhibition of ISO-stimulated AC activity in AC5KO” value in the assay on AC (10 μM, AC5KO heart membranes) is reported as “did not inhibit; also recorded: hardly detectable”. Further, the “decrease of ISO-stimulated AC activity in WT” value in the assay on AC (10 μM, WT heart membranes) is 21+/−3.4% and 21+/−3%.
With `Nc1ncnc2c([C@@H]3O[C@H](CO)[C@@H](O)[C@H]3O)n[nH]c12` [FMA, 7-Amino-3-(β-D-ribofuranosyl)-1H-pyrazolo[4,3-d]pyrimidine], the “inhibition of cAMP accumulation” value in the assay on H9C2 cells was “moderately inhibited”.
Consider `CC(C)NCC(O)c1ccc(O)c(O)c1` (centres unmarked) [ISO, isoproterenol], for which the “increase in AC activity in AC5KO” value in the assay on AC (100 μmol/L ISO + 100 μmol/L GTP, AC5KO) is listed as 64+/−4 pmol/15 min/mg. In the assay with AC (100 μmol/L ISO + 100 μmol/L GTP, WT), the “increase in AC activity in WT” value is reported as 78+/−6 pmol/15 min/mg.
On to `CNC[C@H](O)c1cccc(O)c1` [Phenylephrine], for which the systolic arterial pressure result in the assay on WT and AC5KO mice (0.2 μg/g (0.2 mg/kg) i.v., WT and AC5KO) is “increased systolic arterial pressure significantly in both WT and AC5KO; also recorded: increased systolic arterial pressure similarly in both WT and AC5KO”.
In the case of `CN1[C@@H]2CC[C@H]1C[C@@H](OC(=O)C(CO)c1ccccc1)C2` (some centres unmarked) [atropine], the “increase in HR in AC5KO” value in the assay with WT and AC5KO mice (1 μg/g i.v., AC5KO) is recorded as 19+/−7.5 beats/min. Besides, the “increase in HR in WT” value in the assay with WT and AC5KO mice (1 μg/g i.v., WT) was 102+/−22.2 beats/min.
Take `Nc1nc(Cl)nc2c1ncn2[C@H]1C[C@H](O)[C@@H](CO)O1` [cladribine, 2-chloro-2′-deoxyadenosine]: the “inhibition of cAMP accumulation” value with H9C2 cells is “slight inhibition”.
Take `COc1ccc(CCN(C)CCCC(C#N)(c2ccc(OC)c(OC)c2)C(C)C)cc1OC` (centres unmarked) [verapamil]: the “change in HR in AC5KO” value with WT and AC5KO mice (0.75 mg/kg i.v., AC5KO) was −33+/−10 beats/min. In addition, the “change in HR in WT” value in the assay with WT and AC5KO mice (0.75 mg/kg i.v., WT) was −36+/−10 beats/min.
With `Cc1cn([C@H]2C[C@H](N=[N+]=[N-])[C@@H](COP(=O)(O)OP(=O)(O)OP(=O)(O)O)O2)c(=O)[nH]c1=O` [zidovudine-TP, zidovudine triphosphate], the “inhibition of cAMP accumulation” value in the assay on H9C2 cells is on record as “little inhibition”. For the same compound, the “mode of inhibition with respect to ATP” value at type 5 AC is on record as “competitive”.
